Test results: patent US10160747B2, “Compounds and methods for kinase modulation, and indications therefor” (Plexxikon Inc., priority 2016, dated 2018)

Assays:
[1] = tested on: MOLM-14 D835Y (endogenous FLT3 ITD and transfected FLT3 D835Y); test: MOLM-14 D835Y cell proliferation assay (CellTiter-Glo); type: cell-based; settings: Homo sapiens, MOLM-14, 72 h; 3 d growth, GMean
Description: (§1) The FLT3 inhibitors may be assessed using the MOLM-14, Acute Myeloid Leukemia cell line that endogenously expresses FLT3 ITD or derivatives of the human FLT3 AML cell line which acquired the D835Y (activation loop) of F691L (gatekeeper) mutation after selection in escalating doses of the FLT3 Inhibitor AC220. FLT3 inhibitors may also be assessed using cells that are engineered to express mutant FLT3. For engineered cells, murine Ba/F3 cells were transfected with full-length FLT3 ITD/D835Y mutations. The parental BA/F3 cells are dependent upon Interleukin-3 (IL-3) for survival, and introduction of the FLT3 constructs rendered these cells dependent upon FLT3 kinase activity when cultured in the absences of IL-3. Engineered BA/F3 cell growth assays can be performed in either the […] of IL-3, to assess the compound inhibition of FLT3 or to detect the presence of off-target activity, respectively. Inhibitors of FLT3 kinase activity reduce or eliminate the FLT3 oncogenic signaling, resulting in reduced cell proliferation. This inhibition is measured as a function of compound concentration to assess IC50 values.
(§2) Cell lines used in proliferation assays are as follows in Table 2:
(§3) Cells were seeded at 1×10^4 cells per well of a 96 well cell culture plate in 50 μl of cell culture medium. Compounds were dissolved in DMSO, typically at a concentration of 0.5 mM and were serially diluted 1:3 for a total of eight points and added to the cells to final concentrations of […], 0.0041, 0.0014 and 0.00046 μM in 100 μl cell culture medium (final concentration 0.2% DMSO). […] The cells were incubated at 37° C., 5% CO2 for three days. CellTiter-Glo Buffer (Promega Cell Viability Assay catalog #G7573) and substrate were equilibrated to room temperature, and enzyme/substrate Recombinant Firefly Luciferase/Beetle Luciferin was reconstituted. The cell plates were equilibrated to room temperature for 30 minutes, then lysed by addition of an equivalent volume of the Celltiter-Glo Reagent. The plate was mixed for 10 minutes on a plate shaker to lyse the cells. The plates were read on a Tecan M1000 using Luminescence protocol modified to read 0.1 s per well. The luminescence reading assesses the ATP content, which correlates directly with cell number such that the reading as a function of compound concentration was used to determine the IC50 value.

[2] = tested on: MOLM-14 F691L (endogenous FLT3 ITD and transfected FLT3 F691L); test: MOLM-14 F691L cell proliferation assay (CellTiter-Glo); type: cell-based; settings: Homo sapiens, MOLM-14, 72 h; 3 d growth, GMean
Description: as §1, §2, §3

c-KIT = target: T1, c-KIT (Homo sapiens, UniProt P10721); test: c-KIT recombinant enzyme kinase assay (AlphaScreen); type: biochemical; settings: 100 ATP, 8 pt
T1 construct: purchased Millipore 14-559K
T1 sequence (P10721 26-976): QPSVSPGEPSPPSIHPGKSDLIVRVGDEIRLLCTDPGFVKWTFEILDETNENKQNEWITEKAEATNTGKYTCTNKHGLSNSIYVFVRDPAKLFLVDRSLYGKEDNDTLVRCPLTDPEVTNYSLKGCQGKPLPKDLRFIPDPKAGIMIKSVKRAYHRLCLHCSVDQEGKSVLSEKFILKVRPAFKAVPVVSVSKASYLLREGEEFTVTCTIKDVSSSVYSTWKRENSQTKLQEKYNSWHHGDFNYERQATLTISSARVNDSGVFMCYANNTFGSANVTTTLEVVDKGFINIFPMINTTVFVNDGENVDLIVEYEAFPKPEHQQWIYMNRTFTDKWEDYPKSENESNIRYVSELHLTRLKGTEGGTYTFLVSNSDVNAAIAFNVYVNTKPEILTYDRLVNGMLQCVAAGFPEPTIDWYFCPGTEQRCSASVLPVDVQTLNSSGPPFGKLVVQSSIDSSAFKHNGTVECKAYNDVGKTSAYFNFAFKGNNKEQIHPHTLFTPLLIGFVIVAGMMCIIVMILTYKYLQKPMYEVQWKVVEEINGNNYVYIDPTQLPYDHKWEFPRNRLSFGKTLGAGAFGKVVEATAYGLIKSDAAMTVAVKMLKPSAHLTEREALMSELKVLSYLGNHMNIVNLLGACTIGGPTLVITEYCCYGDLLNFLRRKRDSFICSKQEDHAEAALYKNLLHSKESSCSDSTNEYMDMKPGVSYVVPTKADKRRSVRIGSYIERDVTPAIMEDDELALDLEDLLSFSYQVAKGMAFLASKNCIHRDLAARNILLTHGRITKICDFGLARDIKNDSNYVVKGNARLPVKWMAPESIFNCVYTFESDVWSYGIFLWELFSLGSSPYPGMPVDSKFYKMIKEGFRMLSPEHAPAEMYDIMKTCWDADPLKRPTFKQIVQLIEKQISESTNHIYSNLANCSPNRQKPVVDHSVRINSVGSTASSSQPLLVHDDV
Procedure: In order to determine the effect of compounds on FLT3 catalytic activity, kinase assays using recombinant enzymes and AlphaScreen® technology have been established. The catalytic activity of c-kit activity was also measured to determine selectivity of the compounds. When the kinases are catalytically active, they phosphorylate a biotinylated peptide substrate on tyrosine residues. Using AlphaScreen® technology, the ability of the compounds to affect the catalytic activity of the kinases can be measured quantitatively. The peptide substrate is immobilized by the AlphaScreen® Streptavidin Donor beads and, upon phosphorylation by a tyrosine kinase, can bind to AlphaScreen® Anti-Phosphotyrosine (PY20) Acceptor beads. Upon excitation of these beads with laser light at 680 nm, singlet oxygen is produced. This singlet oxygen is rapidly quenched, unless the AlphaScreen® Anti-Phosphotyrosine (PY20) Acceptor beads are in close proximity, in which case a proximity signal can be measured at 580 nm. In the presence of catalytic activity, there is a very strong proximity signal. Selective kinase inhibitors affect a decrease in this proximity signal through a decrease in tyrosine phosphorylation of the peptide substrate.
The assay was performed as summarized below.
Poly (Glu4-Tyr) Peptide, biotin conjugate [Biotin-GG(EEEEY)10EE] (SEQ ID NO: 4)
Final concentration=30 nM
Adenosine Triphosphate (ATP)
Final concentration for IC50 determination=10 μM (FLT3-D835Y or FLT3-ITD) or 100 μM (c-KIT)
AlphaScreen® Phosphotyrosine (PY20) Assay Kit
Final concentration=10 μg/mL
Dilute compounds in DMSO to 20× final concentration.
Add 1 μL of compound to each well of 384 well reaction plate (Perkin Elmer #6005359).
Mix enzyme and Poly (Glu4-Tyr) Peptide substrate at 1.33× final concentration in assay buffer.
Mix ATP at 5× final concentration in assay buffer.
Add 15 μL enzyme/substrate mixture to the reaction plate.
Add 4 μL of ATP to the reaction plate.
Mix Streptavidin Donor beads at 6× final concentration in Stop/Detection buffer.
Add 5 μL Streptavidin Donor beads to the reaction plate. Centrifuge 1 minute, shake to mix, and incubate at room temperature for 20 minutes.
Mix Anti-Phosphotyrosine (PY20) Acceptor beads at 6× final concentration in Stop/Detection buffer.
Add 5 μL Anti-Phosphotyrosine (PY20) beads to the reaction plate.
Centrifuge 1 minute, shake to mix, and incubate at room temperature for 60 minutes.
Read plate on Wallac EnVision™ 2103 Multilabel Reader.

BA/F3-FLT3-ITD + D835Y = target: T2, BA/F3-FLT3-ITD + D835Y (Homo sapiens, UniProt P36888, D835Y, cells depend on it, form not given); test: Engineered BA/F3 cell growth assay, FLT3 ITD/D835Y; type: cell-based, murine; settings: 3 d growth
T2 sequence (P36888 with tags, fused parts or gaps INS600HVDFREYEYD/D835Y): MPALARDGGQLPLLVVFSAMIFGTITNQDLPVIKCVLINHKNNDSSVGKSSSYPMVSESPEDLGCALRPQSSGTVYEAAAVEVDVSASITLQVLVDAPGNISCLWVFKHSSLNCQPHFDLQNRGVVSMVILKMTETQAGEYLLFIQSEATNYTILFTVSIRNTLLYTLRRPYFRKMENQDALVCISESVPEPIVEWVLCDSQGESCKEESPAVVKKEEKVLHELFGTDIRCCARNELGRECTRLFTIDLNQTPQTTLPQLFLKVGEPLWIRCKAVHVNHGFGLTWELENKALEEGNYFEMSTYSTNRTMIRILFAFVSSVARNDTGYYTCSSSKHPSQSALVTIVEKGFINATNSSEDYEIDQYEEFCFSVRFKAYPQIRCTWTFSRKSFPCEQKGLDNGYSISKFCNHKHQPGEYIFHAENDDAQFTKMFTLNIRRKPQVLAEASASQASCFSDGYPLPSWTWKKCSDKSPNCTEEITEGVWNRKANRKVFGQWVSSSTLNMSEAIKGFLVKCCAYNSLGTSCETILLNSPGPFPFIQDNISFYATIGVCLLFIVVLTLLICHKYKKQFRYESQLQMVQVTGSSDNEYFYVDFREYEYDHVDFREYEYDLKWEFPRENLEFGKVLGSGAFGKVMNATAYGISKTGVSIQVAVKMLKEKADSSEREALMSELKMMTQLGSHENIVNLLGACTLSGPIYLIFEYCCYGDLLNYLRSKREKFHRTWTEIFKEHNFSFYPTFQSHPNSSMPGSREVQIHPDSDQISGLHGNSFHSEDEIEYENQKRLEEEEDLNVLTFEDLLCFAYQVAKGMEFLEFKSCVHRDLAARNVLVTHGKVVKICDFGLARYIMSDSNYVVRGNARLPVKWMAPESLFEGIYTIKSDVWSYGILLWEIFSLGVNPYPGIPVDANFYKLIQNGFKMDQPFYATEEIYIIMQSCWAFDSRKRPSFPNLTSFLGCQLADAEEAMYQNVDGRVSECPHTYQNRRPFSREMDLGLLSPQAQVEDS
Description: as §1, §2, §3
The BaF3 assays as developed used to generate the data in Tables 7 and 8 are identical and differ only in minor details in regards to vector design, not biological function. Both introduce the FLT3 gene with MV4-11 based ITD duplications and resistance mutations from an exogenous promoter (MSCV and CMV respectively) in the exact same cell line.
As a result of the expressed FLT3 protein, the IL3 factor dependent BaF3 cell clones become IL3-factor independent.
The compounds in Tables 7 and 8 were tested in an identical fashion by incubating such clones in with increasing concentrations. Inhibition of the FLT3 activity by an inhibitor results in factor dependency, which in the absence of IL3 results in cell death in the three day growth assays.

Row | IC50 [1] | IC50 [2] | IC50 (c-KIT) | GI50 (BA/F3-FLT3-ITD + D835Y) | SMILES
1 | 0.0001 to 10 µM | 0.0001 to 10 µM |  | 0.0001 to 10 µM | O=C(Cc1ccc(-c2cnc(Nc3cnn(C(F)F)c3)nc2)cc1)Nc1cncc(C2CC2)c1 [Compound P-0224, N-(5-cyclopropyl-3-pyridyl)-2-[4-[2-[[1-(difluoromethyl)pyrazol-4-yl]amino]pyrimidin-5-yl]phenyl]acetamide]
2 | 0.0001 to 10 µM | 0.0001 to 10 µM |  | 0.0001 to 10 µM | COc1ncc(NC(=O)Cc2ccc(-c3cnc(Nc4cn(C(F)F)nc4C)nc3)cc2)cc1C(F)(F)F [Compound P-0054, 2-[4-[2-[[1-(difluoromethyl)-3-methyl-pyrazol-4-yl]amino]pyrimidin-5-yl]phenyl]-N-[6-methoxy-5-(trifluoromethyl)-3-pyridyl]acetamide]
3 | 0.0001 to 10 µM | 0.0001 to 10 µM |  | 0.0001 to 10 µM | COc1ncc(NC(=O)Cc2ccc(-c3cnc4[nH]c(-c5ccnc(C#N)c5)cc4c3)nc2)cc1C(F)(F)F [Compound P-0006, 2-[6-[2-(2-cyano-4-pyridyl)-1H-pyrrolo[2,3-b]pyridin-5-yl]-3-pyridyl]-N-[6-methoxy-5-(trifluoromethyl)-3-pyridyl]acetamide]
4 | 0.0001 to 10 µM | 0.0001 to 10 µM |  | 0.0001 to 10 µM | COCC#Cc1cc2cc(-c3ccc(CC(=O)Nc4cnc(OC)c(C(F)(F)F)c4)cc3)cnc2[nH]1 [Compound P-0056, 2-[4-[2-(3-methoxyprop-1-ynyl)-1H-pyrrolo[2,3-b]pyridin-5-yl]phenyl]-N-[6-methoxy-5-(trifluoromethyl)-3-pyridyl]acetamide]
5 | 0.0001 to 10 µM | 0.0001 to 10 µM |  | 0.0001 to 10 µM | Cn1cc(Nc2ncc(-c3ccc(CC(=O)Nc4ccnc(C(C)(C)C)c4)cc3)cn2)cn1 [Compound P-0112, N-(2-tert-butyl-4-pyridyl)-2-[4-[2-[(1-methylpyrazol-4-yl)amino]pyrimidin-5-yl]phenyl]acetamide]

More lines, now with the values behind:

Row | SMILES | IC50 [1] | IC50 [2] | IC50 (c-KIT) | GI50 (BA/F3-FLT3-ITD + D835Y)
6 | CCC(=O)c1c[nH]c2ncc(-c3ccc(CC(=O)Nc4cnc(OC)c(C(F)(F)F)c4)c(F)c3)cc12 [Compound P-0049, 2-[2-fluoro-4-(3-propanoyl-1H-pyrrolo[2,3-b]pyridin-5-yl)phenyl]-N-[6-methoxy-5-(trifluoromethyl)-3-pyridyl]acetamide] | 0.0001 to 10 µM | 0.0001 to 10 µM | 0.0001 to 10 µM | 0.0001 to 10 µM
7 | CC(C)(C#N)c1ccc(NC(=O)Cc2ccc(-c3cnc4[nH]cc(F)c4c3)cc2F)cn1 [Compound P-0042, N-(6-(2-cyanopropan-2-yl)pyridin-3-yl)-2-(2-fluoro-4-(3-fluoro-1H-pyrrolo[2,3-b]pyridin-5-yl)phenyl)acetamide] | 0.0001 to 10 µM | 0.0001 to 10 µM |  | 0.0001 to 10 µM
8 | COc1cc(-c2cc3cc(-c4ccc(CC(=O)Nc5cnc(OC)c(C(F)(F)F)c5)c(F)c4)cnc3[nH]2)ccn1 [Compound P-0009, 2-[2-fluoro-4-[2-(2-methoxy-4-pyridyl)-1H-pyrrolo[2,3-b]pyridin-5-yl]phenyl]-N-[6-methoxy-5-(trifluoromethyl)-3-pyridyl]acetamide] | 0.0001 to 10 µM | 0.0001 to 10 µM |  | 0.0001 to 10 µM
9 | COc1cc(-c2cc3cc(-c4ccc(CC(=O)Nc5ccnc(C(F)(F)F)c5)nc4)cnc3[nH]2)ccn1 [Compound P-0187, 2-[5-[2-(2-methoxy-4-pyridyl)-1H-pyrrolo[2,3-b]pyridin-5-yl]-2-pyridyl]-N-[2-(trifluoromethyl)-4-pyridyl]acetamide] | 0.0001 to 10 µM | 0.0001 to 10 µM |  | 0.0001 to 10 µM
10 | Cn1cc(Nc2ncc(-c3ccc(CC(=O)NCc4c(Cl)cccc4Cl)cc3)cn2)cn1 [Compound P-0123, N-[(2,6-dichlorophenyl)methyl]-2-[4-[2-[(1-methylpyrazol-4-yl)amino]pyrimidin-5-yl]phenyl]acetamide] | 0.0001 to 10 µM | 0.0001 to 10 µM |  | 0.0001 to 10 µM
